Here are results for one compound from publication PMC11413854, “Reversible Control of Native GluN2B-Containing NMDA Receptors with Visible Light” (ACS Chemical Neuroscience, 2024).

One test deals with T1, GluA2 AMPA receptors (Rattus norvegicus, UniProt P19491).
T1 construct: expressed in transfected cells; host or cells: Xenopus laevis oocytes (mRNA injection)
The experiment in a line: TEVC on Xenopus oocytes, GluA2 AMPA receptors. The note with it: for Inhibition, individual values: GluA2, single cells. Type of test: cell-based. On the set-up: Inhibition, individual values: scale not given here. From the text:
(§1) We used cDNA coding for rat GluN1–1a (named GluN1 herein) (GenBank: U08261.1), rat GluN2A (GenBank: D13211.1), mouse GluN2B (GenBank: D10651.2), rat GluA1 flop (GenBank: M36418.2), and rat Myc-GluA2(Q)-flip (GenBank: AF164344.1) cloned into pcDNA3-based expression plasmids. GluK2 (GenBank: Z11548.1) corresponds to the fully RNA-edited version.[80] The GluN2B-ΔNTD construct is from ref[45] and GluN2B–N615K is from ref[81]. Single mutants GluN2B-Q110G and GluN1-L135H were from ref[19]. The GluA2 cDNA contains a Myc tag ([…]) fused between the signal peptide and the N-terminus sequences, and the GluA2 subunit is […] for its Q/R/N site (GluA2(Q)) to allow permeation of homomeric GluA2 receptors.[2] cDNAs coding for rat GluN2C (GenBank: M91563.1) and GluN2D subunits (GenBank: L31611.1) were in prK5 plasmids.
The expression of recombinant GluA1, GluA2(Q), and GluK2 receptors was obtained by oocyte injection of 50 nL of mRNAs (at 1 μg/μL). mRNAs were generated using the T7 (GluA1 and GluA2) and T3 (GluK2) mMessage mMachine transcription kits (Invitrogen) after cDNA linearization with the SacII restriction enzyme. The injected oocytes were stored in the same conditions as for NMDARs and used 72–96 h postinjection.
TEVC recordings were performed 1–3 days following injection. TEVC recordings were performed using an Oocyte Clamp amplifier OC-725 (Warner Instruments) and computer-controlled via a 1440A Digidata (Molecular Devices). Currents were sampled at 100 Hz and low-pass-filtered at 20 Hz using an 8-pole Bessel filter (900 Series, Frequency Devices Inc.). Data were collected with Clampfit 10.3. During the recording, the cells were continuously perfused with external recording Ringer solution at pH 7.3 (in mM: 100 NaCl, 0.3 BaCl2, 5 HEPES, and 2.5 KCl, pH adjustment to 7.3 by the addition of NaOH). The NMDA currents were induced by simultaneous application of L-glutamate and glycine (agonist solution) at saturating concentration (100 μM each), and DTPA (10 μM) to prevent receptor inhibition by ambient zinc (∼20 nM).[83] A control solution (100 μM glycine and 10 μM DTPA in Ringer pH 7.3) was used for washout of drug and test solutions. AMPA and kainate receptor currents were induced in the same conditions as NMDA currents (100 μM glutamate and glycine + 10 μM DTPA). Oocytes expressing GluK2 kainate receptors were treated with concanavalin A ([…], equivalent to 1.1 mg/mL) during 10 min before recording to decrease receptor desensitization. Unless notified, recordings were performed at a holding potential of −60 mV. All experiments were performed at room temperature. […]

For test [1], the target named is GluN1/GluN2B-ΔNTD receptors (Rattus norvegicus (GluN1); Mus musculus (GluN2B), UniProt P35439+Q01097). The experiment in a line: TEVC on Xenopus oocytes, GluN2B NTD-deleted receptors. The format is cell-based. The settings on record: for Relative current (IOpto/I0): GluN1/GluN2B-DeltaNTD.
Description: We finally investigated the location of the OptoNAM-3 binding-site on the receptor. […] The binding site for GluN2B-selective antagonists at the GluN1/GluN2B NTD dimer interface contains two partially overlapping pockets that accommodate GluN2B-selective NAMs of distinct chemical scaffolds:[19] either scaffolds related to ifenprodil or scaffolds related to another GluN2B-selective NAM called EVT-101.[47]
as §1
Expression of recombinant NMDA receptors was obtained by oocyte nuclear coinjection of 37 nL of a mixture of cDNAs (at 30 ng/μL) coding for GluN1–1a and various GluN2 subunits (ratio 1:1). The protocol in ref[43] was followed for the expression of GluN1/GluN2A/GluN2B triheteromers. The oocytes were transferred in 96-well plates filled with Barth solution (in mM: 88 NaCl, 1 KCl, 0.33 Ca(NO3)2, 0.41 CaCl2, 0.82 MgSO4, 2.4 NaHCO3, and 7.5 HEPES, pH adjusted to 7.3 with NaOH), supplemented with gentamicin ([…]) and 50 μM APV, a selective NMDA receptor antagonist. Plates were then stored at 18 °C for 24 h for GluN1/GluN2A expression and for 48––72 h for the expression of GluN1/Glu2B, GluN1/GluN2A/GluN2B, and mutants.
TEVC recordings were performed 1–3 days following injection. TEVC recordings were performed using an Oocyte Clamp amplifier OC-725 (Warner Instruments) and computer-controlled via a 1440A Digidata (Molecular Devices). Currents were sampled at 100 Hz and low-pass-filtered at 20 Hz using an 8-pole Bessel filter (900 Series, Frequency Devices Inc.). Data were collected with Clampfit 10.3. During the recording, the cells were continuously perfused with external recording Ringer solution at pH 7.3 (in mM: 100 NaCl, 0.3 BaCl2, 5 HEPES, and 2.5 KCl, pH adjustment to 7.3 by the addition of NaOH). The NMDA currents were induced by simultaneous application of L-glutamate and glycine (agonist solution) at saturating concentration (100 μM each), and DTPA (10 μM) to prevent receptor inhibition by ambient zinc (∼20 nM).[83] A control solution (100 μM glycine and 10 μM DTPA in Ringer pH 7.3) was used for washout of drug and test solutions. AMPA and kainate receptor currents were induced in the same conditions as NMDA currents (100 μM glutamate and glycine + 10 μM DTPA). Oocytes expressing GluK2 kainate receptors were treated with concanavalin A ([…], equivalent to 1.1 mg/mL) during 10 min before recording to decrease receptor desensitization. Unless notified, recordings were performed at a holding potential of −60 mV. All experiments were performed at room temperature.
OptoNAMs were diluted as stock solutions of 50 to 0.5 mM in DMSO. On the day of the experiment, they were diluted to the appropriate concentration in the recording solution and kept in the dark during the whole duration of the experiment to avoid photoconversion.

Molecules are shown by their SMILES. Several values for one entry are separate records, joined by “and”; a condition that tells them apart may be missing. Identical values can stand only once. Like-named read-outs stand apart in the source and are kept apart here.

T1 sequence (P19491 22-883 isoform P19491-2 limits assumed): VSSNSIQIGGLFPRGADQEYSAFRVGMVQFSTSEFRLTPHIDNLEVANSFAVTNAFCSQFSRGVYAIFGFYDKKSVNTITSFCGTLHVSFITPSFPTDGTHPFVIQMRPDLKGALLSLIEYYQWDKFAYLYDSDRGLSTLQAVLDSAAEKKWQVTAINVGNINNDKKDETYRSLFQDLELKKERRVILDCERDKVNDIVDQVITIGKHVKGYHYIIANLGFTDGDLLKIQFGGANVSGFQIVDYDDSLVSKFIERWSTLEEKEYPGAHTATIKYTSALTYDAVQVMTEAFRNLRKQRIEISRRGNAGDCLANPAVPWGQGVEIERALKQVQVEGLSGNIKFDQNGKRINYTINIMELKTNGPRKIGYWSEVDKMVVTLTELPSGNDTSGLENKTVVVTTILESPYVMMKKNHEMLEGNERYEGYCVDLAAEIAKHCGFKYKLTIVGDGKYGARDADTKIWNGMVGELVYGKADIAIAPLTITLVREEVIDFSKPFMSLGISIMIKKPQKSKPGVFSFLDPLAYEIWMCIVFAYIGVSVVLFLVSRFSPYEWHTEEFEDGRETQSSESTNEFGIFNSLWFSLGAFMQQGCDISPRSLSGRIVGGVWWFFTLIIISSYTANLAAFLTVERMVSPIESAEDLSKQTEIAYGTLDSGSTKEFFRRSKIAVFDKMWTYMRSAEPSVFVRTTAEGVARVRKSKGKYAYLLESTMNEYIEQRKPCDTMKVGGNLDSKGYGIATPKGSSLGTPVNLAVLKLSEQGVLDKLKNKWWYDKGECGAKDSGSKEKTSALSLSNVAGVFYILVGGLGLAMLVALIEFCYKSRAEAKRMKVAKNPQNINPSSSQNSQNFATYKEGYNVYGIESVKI
GluN1/GluN2B-ΔNTD receptors, sequence (Q01097 395-1482, stated change not applied, other chains not shown): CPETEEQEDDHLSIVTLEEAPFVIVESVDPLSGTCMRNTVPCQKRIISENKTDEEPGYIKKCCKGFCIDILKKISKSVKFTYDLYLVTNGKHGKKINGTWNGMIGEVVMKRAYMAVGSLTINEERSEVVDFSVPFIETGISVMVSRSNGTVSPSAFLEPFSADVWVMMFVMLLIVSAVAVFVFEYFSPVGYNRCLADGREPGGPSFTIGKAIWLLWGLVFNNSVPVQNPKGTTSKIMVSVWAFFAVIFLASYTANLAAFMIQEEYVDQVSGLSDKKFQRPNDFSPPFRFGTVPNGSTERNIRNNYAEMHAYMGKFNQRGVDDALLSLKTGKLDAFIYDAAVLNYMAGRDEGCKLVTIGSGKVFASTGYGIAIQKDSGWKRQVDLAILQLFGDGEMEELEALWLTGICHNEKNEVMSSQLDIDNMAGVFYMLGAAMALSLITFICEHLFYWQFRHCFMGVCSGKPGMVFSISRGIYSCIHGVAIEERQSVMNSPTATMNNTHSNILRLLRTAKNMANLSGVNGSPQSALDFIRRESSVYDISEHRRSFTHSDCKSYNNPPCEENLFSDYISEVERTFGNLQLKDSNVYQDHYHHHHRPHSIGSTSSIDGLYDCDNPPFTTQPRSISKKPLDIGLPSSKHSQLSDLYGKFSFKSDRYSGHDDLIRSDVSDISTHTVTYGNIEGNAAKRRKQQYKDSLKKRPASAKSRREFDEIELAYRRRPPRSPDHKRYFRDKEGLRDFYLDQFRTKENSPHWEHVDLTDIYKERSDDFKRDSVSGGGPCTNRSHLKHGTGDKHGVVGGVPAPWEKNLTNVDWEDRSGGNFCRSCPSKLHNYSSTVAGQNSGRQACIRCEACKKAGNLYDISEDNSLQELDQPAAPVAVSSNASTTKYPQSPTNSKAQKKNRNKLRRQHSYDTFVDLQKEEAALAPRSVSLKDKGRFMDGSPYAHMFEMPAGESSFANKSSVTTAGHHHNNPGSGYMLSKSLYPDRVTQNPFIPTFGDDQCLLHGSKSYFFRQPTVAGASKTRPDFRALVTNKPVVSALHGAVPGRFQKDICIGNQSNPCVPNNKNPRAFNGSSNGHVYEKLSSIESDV

Regarding `c1ccc(/N=N/c2ccc(CCNc3ccncc3)cc2)cc1` [OptoNAM-3, (E)-N-(4-(Phenyldiazenyl)phenethyl)pyridin-4-amine], the inhibition at 10 µM on GluA2 AMPA receptors (10 µM OptoNAM-3 365 nm PSS, construct GluA2, read-out: Inhibition (%)) is -4.9%; on GluA2 AMPA receptors (10 µM OptoNAM-3 dark PSS (trans), construct GluA2, read-out: Inhibition (%)) it was -7.4%; at GluA2 AMPA receptors (10 µM, dark PSS, read-out: inhibition of GluA2 currents), -7.4 ± 3.5%. Besides, the “Inhibition, individual values” was -0.00171 and -0.04016 and -0.1082 and -0.02166 and -0.07608 and -0.04674 at GluA2 AMPA receptors (10 µM OptoNAM-3 dark PSS (trans) as headed, second block); -0.007761 and -0.14 and -0.08034 and -0.01769 and -0.2089 and 0.009857 on GluA2 AMPA receptors (10 µM OptoNAM-3 dark PSS (trans), first block). Further, the “inhibition of GluA2 currents” value against GluA2 AMPA receptors (10 µM, dark PSS) is recorded as “no effect”. In addition, in test [1] (1 µM trans-OptoNAM-3 (dark), calculated from the dose-response curve), the “inhibition of GluN1/GluN2B-DeltaNTD” value is on record as 2.150%. The IC50 in test [1] (365 nm PSS, read-out: IC50 on GluN1/GluN2B-ΔNTD receptors pre-illuminated with 365 nm) worked out at 25 ± 6 µM; in test [1] (dark, read-out: IC50 on GluN1/GluN2B-ΔNTD receptors in the dark), 20 ± 4 µM. Moreover, the “Relative current (IOpto/I0)” value in test [1] (OptoNAM-3 365 nm PSS, [OptoNAM-3] 0.3 µM) is given as 0.952; in test [1] (OptoNAM-3 365 nm PSS, [OptoNAM-3] 2 µM), 0.900; in test [1] (OptoNAM-3 365 nm PSS, [OptoNAM-3] 5 µM) it was 0.779; in test [1] (OptoNAM-3 365 nm PSS, [OptoNAM-3] 20 µM), 0.661; in test [1] (OptoNAM-3 365 nm PSS, [OptoNAM-3] 30 µM), 0.421; in test [1] (OptoNAM-3 365 nm PSS, [OptoNAM-3] 67 µM), 0.119. The “Relative current (IOpto/I0)” value was found to be 0.969 in test [1] (OptoNAM-3 dark PSS (trans), [OptoNAM-3] 0.3 µM); 0.866 in test [1] (OptoNAM-3 dark PSS (trans), [OptoNAM-3] 2 µM); 0.809 in test [1] (OptoNAM-3 dark PSS (trans), [OptoNAM-3] 5 µM); 0.542 in test [1] (OptoNAM-3 dark PSS (trans), [OptoNAM-3] 20 µM); 0.365 in test [1] (OptoNAM-3 dark PSS (trans), [OptoNAM-3] 30 µM); 0.033 in test [1] (OptoNAM-3 dark PSS (trans), [OptoNAM-3] 67 µM). Further, the “shift in IC50 between wt and GluN1/GluN2B-ΔNTD receptors” value in test [1] (dark) worked out at 100 fold.
